Measurements: US9533985B2, “Sulfonamide derivative and medicinal use thereof” (EA Pharma Co., Ltd., priority 2012, dated 2017)

Target: α4β7 integrin (Homo sapiens (Human), UniProt P13612+P26010)
Assay: MAdCAM-1/α4β7 integrin binding inhibitory activity evaluation test in the presence of serum (2)
Type: cell-based
Conditions: RPMI-8866 cells binding to mouse MAdCAM-1/Fc, same manner as Test (3), read-out: α4β7 Rank of activity with serum added
Method in brief: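 Adhesion of human RPMI-8866 B cells (α4β7-expressing) to plate-bound recombinant mouse MAdCAM-1/Fc in DMEM binding buffer with 4 mM MnCl2 and 50% final human serum, 15–60 min at 30 °C. Bound cells quantified by LDH activity (A490) after lysis; IC50 relative to no-compound binding, duplicate.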

α4β7 integrin, sequence (P13612 34-1032): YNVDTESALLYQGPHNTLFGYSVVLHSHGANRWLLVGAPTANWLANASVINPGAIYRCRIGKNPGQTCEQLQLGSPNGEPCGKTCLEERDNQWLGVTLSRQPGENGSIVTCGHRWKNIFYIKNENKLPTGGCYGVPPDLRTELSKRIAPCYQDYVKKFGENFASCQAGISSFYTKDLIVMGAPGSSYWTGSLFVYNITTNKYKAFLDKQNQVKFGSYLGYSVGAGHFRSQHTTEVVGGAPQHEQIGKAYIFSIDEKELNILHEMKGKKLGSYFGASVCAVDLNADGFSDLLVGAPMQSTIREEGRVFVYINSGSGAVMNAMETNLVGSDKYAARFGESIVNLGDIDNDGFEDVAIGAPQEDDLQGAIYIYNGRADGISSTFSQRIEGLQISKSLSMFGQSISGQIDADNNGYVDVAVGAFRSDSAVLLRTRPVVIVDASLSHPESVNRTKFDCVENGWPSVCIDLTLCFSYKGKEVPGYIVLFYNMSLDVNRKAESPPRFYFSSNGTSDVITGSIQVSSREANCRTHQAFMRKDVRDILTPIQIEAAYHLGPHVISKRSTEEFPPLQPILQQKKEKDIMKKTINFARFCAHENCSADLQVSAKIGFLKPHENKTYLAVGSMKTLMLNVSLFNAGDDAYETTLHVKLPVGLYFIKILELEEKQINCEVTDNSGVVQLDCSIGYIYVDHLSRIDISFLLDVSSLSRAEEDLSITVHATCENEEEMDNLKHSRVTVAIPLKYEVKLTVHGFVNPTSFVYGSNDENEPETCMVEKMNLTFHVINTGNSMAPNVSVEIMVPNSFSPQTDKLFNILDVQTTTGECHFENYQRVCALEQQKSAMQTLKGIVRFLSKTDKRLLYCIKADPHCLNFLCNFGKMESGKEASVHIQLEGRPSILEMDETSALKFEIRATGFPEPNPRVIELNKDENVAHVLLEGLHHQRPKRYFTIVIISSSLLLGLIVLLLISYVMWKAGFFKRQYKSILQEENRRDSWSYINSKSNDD
α4β7 integrin, sequence (P26010 20-798): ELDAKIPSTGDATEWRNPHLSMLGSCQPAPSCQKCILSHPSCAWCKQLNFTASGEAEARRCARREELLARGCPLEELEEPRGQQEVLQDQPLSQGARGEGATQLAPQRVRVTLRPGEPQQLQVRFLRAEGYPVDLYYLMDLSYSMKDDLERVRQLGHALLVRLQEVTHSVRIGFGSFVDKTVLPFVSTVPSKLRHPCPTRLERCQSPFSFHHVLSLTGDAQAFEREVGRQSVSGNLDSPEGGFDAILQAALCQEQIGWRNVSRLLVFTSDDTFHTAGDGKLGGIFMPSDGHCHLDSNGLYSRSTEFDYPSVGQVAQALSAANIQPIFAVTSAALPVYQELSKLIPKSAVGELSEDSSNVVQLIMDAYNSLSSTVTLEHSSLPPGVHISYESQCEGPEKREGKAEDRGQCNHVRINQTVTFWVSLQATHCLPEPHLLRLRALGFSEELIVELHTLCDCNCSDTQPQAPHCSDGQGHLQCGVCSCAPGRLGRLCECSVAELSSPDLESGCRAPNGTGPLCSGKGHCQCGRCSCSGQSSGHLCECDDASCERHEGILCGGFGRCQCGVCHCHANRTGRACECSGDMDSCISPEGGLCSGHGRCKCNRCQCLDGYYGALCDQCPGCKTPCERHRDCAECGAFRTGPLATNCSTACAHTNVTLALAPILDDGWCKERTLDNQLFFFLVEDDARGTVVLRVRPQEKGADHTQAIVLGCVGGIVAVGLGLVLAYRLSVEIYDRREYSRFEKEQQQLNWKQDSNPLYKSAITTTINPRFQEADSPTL

Structure (SMILES) | IC50 [nM]
CNCc1ccc(S(=O)(=O)Nc2ccc(C(=O)N[C@@H](Cc3ccc(-n4c(=O)c5ccncc5n(C)c4=O)cn3)C(=O)O)c(F)c2)cc1 [Example 177, N-{2-Fluoro-4-[({4-[(methylamino)methyl]phenyl}sulfonyl)amino]benzoyl}-3-[5-(1-methyl-2,4-dioxo-1,4-dihydropyrido[3,4-d]pyrimidin-3(2H)-yl)pyridin-2-yl]-L-alanine] | 10 to 50
Cn1c(=O)n(-c2ccc(C[C@H](NC(=O)c3c(F)cc(NS(=O)(=O)c4ccc(-c5ccco5)cc4)cc3F)C(=O)O)nc2)c(=O)c2ccncc21 [Example 148, N-[2,6-Difluoro-4-({[4-(2-furyl)phenyl]sulfonyl}amino)benzoyl]-3-[5-(1-methyl-2,4-dioxo-1,4-dihydropyrido[3,4-d]pyrimidin-3(2H)-yl)pyridin-2-yl]-L-alanine] | 10 to 50
Cn1ccc(=O)n(-c2ccc(C[C@H](NC(=O)c3c(F)cc(NS(=O)(=O)c4ccc(-c5ncccn5)cn4)cc3F)C(=O)O)nc2)c1=O [Example 159, N-(2,6-Difluoro-4-{[(5-pyrimidin-2-yl-pyridin-2-yl)sulfonyl]amino}benzoyl)-3-[5-(3-methyl-2,6-dioxo-3,6-dihydropyrimidin-1(2H)-yl)pyridin-2-yl]-L-alanine] | 10 to 50
Cn1c(=O)n(-c2ccc(C[C@H](NC(=O)c3ncc(NS(=O)(=O)c4ccncc4)cc3F)C(=O)O)cc2)c(=O)c2ccncc21 [Example 184, N-({3-Fluoro-5-[(pyridin-4-yl-sulfonyl)amino]pyridin-2-yl}carbonyl)-4-(1-methyl-2,4-dioxo-1,4-dihydropyrido[3,4-d]pyrimidin-3(2H)-yl)-L-phenylalanine] | 10 to 50
Cc1cc(C(=O)NC(C)(C)C)ccc1S(=O)(=O)Nc1cc(F)c(C(=O)N[C@@H](Cc2ccc(-n3c(=O)ccn(C)c3=O)cc2)C(=O)O)c(F)c1 [Example 158, N-{4-[({4-[(tert-Butylamino)carbonyl]-2-methylphenyl}sulfonyl)amino]-2,6-difluorobenzoyl}-4-(3-methyl-2,6-dioxo-3,6-dihydropyrimidin-1(2H)-yl)-L-phenylalanine] | ≤ 10
Cn1c(=O)n(-c2ccc(C[C@H](NC(=O)c3ccc(NS(=O)(=O)c4ccco4)cc3F)C(=O)O)nc2)c(=O)c2ccncc21 [Example 139, N-{2-Fluoro-4-[(2-furylsulfonyl)amino]benzoyl}-3-[5-(1-methyl-2,4-dioxo-1,4-dihydropyrido[3,4-d]pyrimidin-3(2H)-yl)pyridin-2-yl]-L-alanine] | 10 to 50
CNCc1ccc(S(=O)(=O)Nc2cc(F)c(C(=O)N[C@@H](Cc3ccc(-n4c(=O)ccn(C)c4=O)cc3)C(=O)O)c(F)c2)cc1 [Example 176, N-{2,6-Difluoro-4-[({4-[(methylamino)methyl]phenyl}sulfonyl)amino]benzoyl}-4-(3-methyl-2,6-dioxo-3,6-dihydropyrimidin-1(2H)-yl)-L-phenylalanine] | ≤ 10
Cn1c(=O)n(-c2ccc(C[C@H](NC(=O)c3cc(F)c(NS(=O)(=O)c4cccs4)cc3F)C(=O)O)cc2)c(=O)c2ccncc21 [Example 213, N-{2,5-Difluoro-4-[(2-thienylsulfonyl)amino]benzoyl}-4-(1-methyl-2,4-dioxo-1,4-dihydropyrido[3,4-d]pyrimidin-3(2H)-yl)-L-phenylalanine] | 10 to 50
Cn1c(=O)n(-c2ccc(C[C@H](NC(=O)c3cc(F)c(NS(=O)(=O)c4ccc(-n5cncn5)cn4)cc3F)C(=O)O)nc2)c(=O)c2ccncc21 [Example 217, N-[2,5-Difluoro-4-({[5-(1H-1,2,4-triazol-1-yl)pyridin-2-yl]sulfonyl}amino)benzoyl]-3-[5-(1-methyl-2,4-dioxo-1,4-dihydropyrido[3,4-d]pyrimidin-3(2H)-yl)pyridin-2-yl]-L-alanine] | 10 to 50
Cn1cnc2c1c(=O)n(-c1ccc(C[C@H](NC(=O)c3c(F)cc(NS(=O)(=O)c4ccc(-c5ncccn5)cn4)cc3F)C(=O)O)cc1)c(=O)n2C [Example 153, N-(2,6-Difluoro-4-{[(5-pyrimidin-2-yl-pyridin-2-yl)sulfonyl]amino}benzoyl)-4-(3,7-dimethyl-2,6-dioxo-2,3,6,7-tetrahydro-1H-purin-1-yl)-L-phenylalanine] | ≤ 10
Cn1c(=O)n(-c2ccc(C[C@H](NC(=O)c3cc(F)c(NS(=O)(=O)c4ccc(-c5cncnc5)cc4)cc3F)C(=O)O)nc2)c(=O)c2ccncc21 [Example 215, N-(2,5-Difluoro-4-{[(4-pyrimidin-5-ylphenyl)sulfonyl]amino}benzoyl)-3-[5-(1-methyl-2,4-dioxo-1,4-dihydropyrido[3,4-d]pyrimidin-3(2H)-yl)pyridin-2-yl]-L-alanine] | 10 to 50

More lines, now with the values ahead:

IC50 [nM] | Structure (SMILES)
≤ 10 | CCc1ncc(-c2ccc(S(=O)(=O)Nc3cc(F)c(C(=O)N[C@@H](Cc4ccc(-n5c(=O)c6ccncc6n(C)c5=O)nc4)C(=O)O)cc3F)cc2)cn1 [Example 238, N-[4-({[4-(2-Ethylpyrimidin-5-yl)phenyl]sulfonyl}amino)-2,5-difluorobenzoyl]-3-[6-(1-methyl-2,4-dioxo-1,4-dihydropyrido[3,4-d]pyrimidin-3(2H)-yl)pyridin-3-yl]-L-alanine]
≤ 10 | CCOc1cc(-c2ncccn2)ccc1S(=O)(=O)Nc1cc(F)c(C(=O)N[C@@H](Cc2ccc(-n3c(=O)c4ccncc4n(C)c3=O)cn2)C(=O)O)c(F)c1 [Example 231, N-(4-{[(2-Ethoxy-4-pyrimidin-2-ylphenyl)sulfonyl]amino}-2,6-difluorobenzoyl)-3-[5-(1-methyl-2,4-dioxo-1,4-dihydropyrido[3,4-d]pyrimidin-3(2H)-yl)pyridin-2-yl]-L-alanine]
10 to 50 | CCc1ncc(-c2ccc(S(=O)(=O)Nc3cc(F)c(C(=O)N[C@@H](Cc4ccc(-n5c(=O)c6ccncc6n(C)c5=O)cn4)C(=O)O)cc3F)nc2)cn1 [Example 236, N-[4-({[5-(2-Ethylpyrimidin-5-yl)pyridin-2-yl]sulfonyl}amino)-2,5-difluorobenzoyl]-3-[5-(1-methyl-2,4-dioxo-1,4-dihydropyrido[3,4-d]pyrimidin-3(2H)-yl)pyridin-2-yl]-L-alanine]
50 to 200 | Cn1c(=O)n(-c2ccc(C[C@H](NC(=O)c3cc(F)c(NS(=O)(=O)c4ccc(-c5cnc(N6CCC6)nc5)cc4)cc3F)C(=O)O)nc2)c(=O)c2ccncc21 [Example 232, N-[4-({[4-(2-Azetidin-1-ylpyrimidin-5-yl)phenyl]sulfonyl}amino)-2,5-difluorobenzoyl]-3-[5-(1-methyl-2,4-dioxo-1,4-dihydropyrido[3,4-d]pyrimidin-3(2H)-yl)pyridin-2-yl]-L-alanine]
50 to 200 | Cn1c(=O)n(-c2ccc(C[C@H](NC(=O)c3cc(F)c(NS(=O)(=O)c4ccc(C(=O)C5CC5)cc4)cc3F)C(=O)O)nc2)c(=O)c2ccncc21 [Example 223, N-[4-({[4-(Cyclopropylcarbonyl)phenyl]sulfonyl}amino)-2,5-difluorobenzoyl]-3-[5-(1-methyl-2,4-dioxo-1,4-dihydropyrido[3,4-d]pyrimidin-3(2H)-yl)pyridin-2-yl]-L-alanine]
10 to 50 | Cc1cn(-c2ccc(S(=O)(=O)Nc3cc(F)c(C(=O)N[C@@H](Cc4ccc(-n5c(=O)c6ccncc6n(C)c5=O)cn4)C(=O)O)cc3F)cc2)nn1 [Example 234, N-[2,5-Difluoro-4-({[4-(4-methyl-1H-1,2,3-triazol-1-yl)phenyl]sulfonyl}amino)benzoyl]-3-[5-(1-methyl-2,4-dioxo-1,4-dihydropyrido[3,4-d]pyrimidin-3(2H)-yl)pyridin-2-yl]-L-alanine]
